Where two headings read alike, the source gives them in different places.
Columns and labels:
USP1-UAF1 [1] = molecular target: T1, USP1-UAF1 (Homo sapiens, UniProt O94782); assay: inhibition mechanism determination; format: biochemical
USP1-UAF1 [2] = molecular target: T1, USP1-UAF1; assay: reversibility; format: biochemical; conditions: 100-fold dilution after treatment at ten times the IC50 for 15, 30 and 60 min
USP1-UAF1 [3] = molecular target: T1, USP1-UAF1; assay: native gel electrophoresis of USP1-UAF1 complex; conditions: up to 100 times its IC50
USP2 = USP2 (Homo sapiens, UniProt O75604); assay: in vitro DUB selectivity; format: biochemical
USP5 = USP5 (Homo sapiens, UniProt P45974); assay: in vitro DUB selectivity; format: biochemical
Chain of USP5 (P45974 whole entry): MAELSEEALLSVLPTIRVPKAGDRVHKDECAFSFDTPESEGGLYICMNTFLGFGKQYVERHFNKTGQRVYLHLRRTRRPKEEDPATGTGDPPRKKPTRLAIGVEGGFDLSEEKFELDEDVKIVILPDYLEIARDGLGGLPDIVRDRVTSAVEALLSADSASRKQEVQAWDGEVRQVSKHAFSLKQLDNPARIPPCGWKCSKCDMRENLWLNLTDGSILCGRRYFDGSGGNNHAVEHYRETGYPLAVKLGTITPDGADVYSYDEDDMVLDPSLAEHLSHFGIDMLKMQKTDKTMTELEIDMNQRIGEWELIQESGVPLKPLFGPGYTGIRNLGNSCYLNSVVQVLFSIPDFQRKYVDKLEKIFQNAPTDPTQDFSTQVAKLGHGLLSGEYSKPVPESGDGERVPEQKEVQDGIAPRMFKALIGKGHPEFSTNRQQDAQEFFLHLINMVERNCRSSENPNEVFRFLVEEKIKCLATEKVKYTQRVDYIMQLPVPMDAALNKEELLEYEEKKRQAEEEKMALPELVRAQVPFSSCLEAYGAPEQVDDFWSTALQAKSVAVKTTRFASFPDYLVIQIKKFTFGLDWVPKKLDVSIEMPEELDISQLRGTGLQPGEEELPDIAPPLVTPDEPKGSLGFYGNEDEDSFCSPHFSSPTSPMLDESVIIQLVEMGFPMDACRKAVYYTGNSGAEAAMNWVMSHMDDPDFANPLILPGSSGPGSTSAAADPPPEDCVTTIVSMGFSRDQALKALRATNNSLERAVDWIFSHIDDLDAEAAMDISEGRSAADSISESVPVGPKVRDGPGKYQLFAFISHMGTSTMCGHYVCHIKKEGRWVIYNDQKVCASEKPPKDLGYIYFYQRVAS

USP8 = USP8 (Homo sapiens, UniProt P40818); assay: in vitro DUB selectivity; format: biochemical
USP11 = USP11 (Homo sapiens, UniProt P51784); assay: in vitro DUB selectivity; format: biochemical
Chain of USP11 (P51784 whole entry): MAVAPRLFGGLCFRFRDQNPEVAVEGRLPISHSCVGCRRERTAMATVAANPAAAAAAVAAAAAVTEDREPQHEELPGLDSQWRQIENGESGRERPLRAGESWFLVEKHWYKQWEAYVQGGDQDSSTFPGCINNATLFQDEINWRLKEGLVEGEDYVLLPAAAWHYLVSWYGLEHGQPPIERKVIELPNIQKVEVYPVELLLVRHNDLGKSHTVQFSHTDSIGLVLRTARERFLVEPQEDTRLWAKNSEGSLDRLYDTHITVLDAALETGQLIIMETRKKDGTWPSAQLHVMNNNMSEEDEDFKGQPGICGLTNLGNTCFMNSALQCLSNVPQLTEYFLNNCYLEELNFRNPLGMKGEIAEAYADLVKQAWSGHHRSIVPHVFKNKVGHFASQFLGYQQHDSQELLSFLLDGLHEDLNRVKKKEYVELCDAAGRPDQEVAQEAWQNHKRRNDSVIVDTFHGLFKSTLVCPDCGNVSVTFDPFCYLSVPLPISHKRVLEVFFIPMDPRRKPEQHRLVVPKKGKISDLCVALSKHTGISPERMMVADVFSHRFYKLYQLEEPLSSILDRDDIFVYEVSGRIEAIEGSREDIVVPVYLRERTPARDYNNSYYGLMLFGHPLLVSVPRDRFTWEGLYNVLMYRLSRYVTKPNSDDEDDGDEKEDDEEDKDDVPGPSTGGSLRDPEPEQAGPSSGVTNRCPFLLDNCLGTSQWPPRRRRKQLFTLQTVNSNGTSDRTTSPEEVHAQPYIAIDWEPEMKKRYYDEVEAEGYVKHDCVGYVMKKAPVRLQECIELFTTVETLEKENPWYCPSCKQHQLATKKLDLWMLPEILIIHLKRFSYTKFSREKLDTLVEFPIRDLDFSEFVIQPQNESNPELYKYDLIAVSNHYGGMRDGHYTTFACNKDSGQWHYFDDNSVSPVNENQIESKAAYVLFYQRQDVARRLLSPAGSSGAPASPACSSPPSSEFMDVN

USP21 = USP21 (Homo sapiens, UniProt Q9UK80); assay: in vitro DUB selectivity; format: biochemical
Chain of USP21 (Q9UK80 209-563): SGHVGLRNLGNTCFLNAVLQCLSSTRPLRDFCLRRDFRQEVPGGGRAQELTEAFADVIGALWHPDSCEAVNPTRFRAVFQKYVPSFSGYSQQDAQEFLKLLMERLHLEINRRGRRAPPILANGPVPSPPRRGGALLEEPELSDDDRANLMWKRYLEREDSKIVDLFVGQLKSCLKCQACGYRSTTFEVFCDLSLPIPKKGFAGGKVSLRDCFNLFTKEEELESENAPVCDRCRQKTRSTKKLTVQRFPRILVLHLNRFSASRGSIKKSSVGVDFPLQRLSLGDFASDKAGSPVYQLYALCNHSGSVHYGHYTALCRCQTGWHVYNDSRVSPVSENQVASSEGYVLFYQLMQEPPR

USP46-UAF1 = USP46-UAF1 (Homo sapiens, UniProt P62068); assay: in vitro DUB selectivity; format: biochemical
SENP1 = SENP1 (Homo sapiens, UniProt Q9P0U3); assay: in vitro deSUMOylase selectivity; format: biochemical
NEDP1 = NEDP1 (Homo sapiens, UniProt Q96LD8); assay: in vitro deneddylase selectivity; format: biochemical
451 kinases = assay: in vitro kinase profiling; format: biochemical
USP1-UAF1 [4] = molecular target: T1, USP1-UAF1; assay: HA-Ub-VME labeling of purified USP1-UAF1; conditions: biochemical assay
USP1 in HEK293T cells = USP1 in HEK293T cells (Homo sapiens, UniProt O94782); assay: cellular activity-based DUB profiling with HA-Ub-VME; format: cell-based; conditions: 100 μM cisplatin, ML323 0.5 to 50 μM
Chain of USP1 in HEK293T cells (O94782 whole entry): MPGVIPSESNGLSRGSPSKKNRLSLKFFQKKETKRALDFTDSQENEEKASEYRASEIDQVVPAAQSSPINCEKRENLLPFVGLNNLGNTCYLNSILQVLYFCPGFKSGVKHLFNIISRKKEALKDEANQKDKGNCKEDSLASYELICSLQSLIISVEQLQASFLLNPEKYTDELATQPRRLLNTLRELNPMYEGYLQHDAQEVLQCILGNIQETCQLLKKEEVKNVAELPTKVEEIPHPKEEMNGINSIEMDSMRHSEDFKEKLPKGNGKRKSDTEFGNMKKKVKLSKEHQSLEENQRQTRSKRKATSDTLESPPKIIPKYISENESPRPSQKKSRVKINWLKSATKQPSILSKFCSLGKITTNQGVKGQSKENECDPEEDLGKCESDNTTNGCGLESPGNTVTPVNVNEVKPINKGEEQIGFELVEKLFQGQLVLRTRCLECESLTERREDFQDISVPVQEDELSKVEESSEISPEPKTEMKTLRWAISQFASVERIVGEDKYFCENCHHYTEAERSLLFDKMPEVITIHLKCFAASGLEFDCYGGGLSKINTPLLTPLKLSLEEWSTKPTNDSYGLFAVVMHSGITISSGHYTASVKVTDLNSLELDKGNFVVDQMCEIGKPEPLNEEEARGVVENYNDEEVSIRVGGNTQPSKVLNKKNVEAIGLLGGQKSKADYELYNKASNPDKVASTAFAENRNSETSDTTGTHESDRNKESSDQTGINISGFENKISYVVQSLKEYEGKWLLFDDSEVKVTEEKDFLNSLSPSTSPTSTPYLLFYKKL
Chain of USP1 in HEK293T cells (Q8TAF3 whole entry partner): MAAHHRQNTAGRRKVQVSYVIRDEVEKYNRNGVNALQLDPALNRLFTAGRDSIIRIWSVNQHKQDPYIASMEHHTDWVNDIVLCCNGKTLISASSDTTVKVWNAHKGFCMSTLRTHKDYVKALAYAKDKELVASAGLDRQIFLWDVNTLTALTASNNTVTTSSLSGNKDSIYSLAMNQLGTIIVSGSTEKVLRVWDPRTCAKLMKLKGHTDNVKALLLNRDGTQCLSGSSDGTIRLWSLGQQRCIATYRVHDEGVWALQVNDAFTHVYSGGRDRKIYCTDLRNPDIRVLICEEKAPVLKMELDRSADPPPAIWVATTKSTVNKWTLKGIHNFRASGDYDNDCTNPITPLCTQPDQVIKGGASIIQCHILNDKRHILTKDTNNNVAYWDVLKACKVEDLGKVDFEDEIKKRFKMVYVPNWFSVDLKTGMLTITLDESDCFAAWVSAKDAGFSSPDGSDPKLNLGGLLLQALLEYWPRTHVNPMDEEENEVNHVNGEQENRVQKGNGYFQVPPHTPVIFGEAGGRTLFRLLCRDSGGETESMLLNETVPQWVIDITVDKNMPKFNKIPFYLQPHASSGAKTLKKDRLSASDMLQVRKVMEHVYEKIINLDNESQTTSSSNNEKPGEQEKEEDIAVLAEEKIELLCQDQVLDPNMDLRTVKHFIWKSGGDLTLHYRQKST

[5] = tested on: USP8, USP7, CYLD, USP5, USP14, UCH-L3 and UCH-L1 in HEK293T cells; assay: as above; format: cell-based, human; conditions: 100 μM cisplatin, ML323 0.5 to 50 μM
H596 cells [6] = assay: cellular activity assay of USP1-UAF1; format: cell-based, human; conditions: for change in levels of Ub-PCNA and Ub-FANCD2: H596, 6 h, cisplatin 100 μM, ML323 30 μM
[7] = tested on: USP1 shRNA knockdown H596 cells; assay: cellular Ub-PCNA level in USP1 shRNA knockdown cells; format: cell-based, human
H596 cells [8] = assay: colony-forming assay; format: cell-based, human
[9] = tested on: USP1 shRNA knockout H596 cell strain; assay: colony-forming assay in USP1 shRNA cells; format: cell-based, human
H596 cells [10] = assay: cell cycle analysis; format: cell-based, human
XPV cells = assay: UV sensitivity colony-forming assay; format: cell-based, human; conditions: 20 μM ML323
PD20 cells = assay: UV sensitivity colony-forming assay; format: cell-based, human; conditions: 20 μM ML323
PD20 + D2 cells [11] = assay: UV sensitivity colony-forming assay; format: cell-based, human; conditions: with ML323
U2OS cells [12] = assay: FANCD2 subnuclear foci formation; format: cell-based, human; conditions: ML323 30 μM, cisplatin 5 μM, vehicle 13.1%
DR-U2OS cells = assay: HR assay; format: cell-based, human; conditions: 30 μM ML323, 2.56% in the absence of ML323
U2OS cells [13] = assay: SCE assay; format: cell-based, human; conditions: ML323 30 μM, cisplatin 15 μM, control 0.12
[14] = tested on: DUBs in the UCH, OTU and MJD families; assay: in vitro DUB profiling
USP10 = USP10 (Homo sapiens, UniProt Q14694); assay: in vitro DUB selectivity
Chain of USP10 (Q14694 whole entry): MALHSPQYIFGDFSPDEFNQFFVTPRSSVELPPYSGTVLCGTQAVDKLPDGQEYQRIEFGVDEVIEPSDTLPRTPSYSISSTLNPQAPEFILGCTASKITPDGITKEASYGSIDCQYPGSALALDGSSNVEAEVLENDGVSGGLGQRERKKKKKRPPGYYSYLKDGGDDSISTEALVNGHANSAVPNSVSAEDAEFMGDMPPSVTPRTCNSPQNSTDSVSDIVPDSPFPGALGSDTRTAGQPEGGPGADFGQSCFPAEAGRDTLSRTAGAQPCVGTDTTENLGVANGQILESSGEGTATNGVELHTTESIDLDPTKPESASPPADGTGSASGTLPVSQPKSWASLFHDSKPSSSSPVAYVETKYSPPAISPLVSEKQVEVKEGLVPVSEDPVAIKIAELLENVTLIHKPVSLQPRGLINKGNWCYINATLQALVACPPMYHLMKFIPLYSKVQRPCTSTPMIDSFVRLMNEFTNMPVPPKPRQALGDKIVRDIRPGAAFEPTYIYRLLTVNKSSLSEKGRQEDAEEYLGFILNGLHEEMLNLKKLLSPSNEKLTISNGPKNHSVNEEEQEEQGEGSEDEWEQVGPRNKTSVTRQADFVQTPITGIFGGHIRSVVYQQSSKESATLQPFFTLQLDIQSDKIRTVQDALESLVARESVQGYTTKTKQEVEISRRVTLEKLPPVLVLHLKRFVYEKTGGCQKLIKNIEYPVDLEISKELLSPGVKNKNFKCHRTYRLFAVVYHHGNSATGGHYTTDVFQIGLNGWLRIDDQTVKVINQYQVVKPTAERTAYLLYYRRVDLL

USP14 = USP14 (Homo sapiens, UniProt P54578); assay: in vitro DUB selectivity
Chain of USP14 (P54578 whole entry): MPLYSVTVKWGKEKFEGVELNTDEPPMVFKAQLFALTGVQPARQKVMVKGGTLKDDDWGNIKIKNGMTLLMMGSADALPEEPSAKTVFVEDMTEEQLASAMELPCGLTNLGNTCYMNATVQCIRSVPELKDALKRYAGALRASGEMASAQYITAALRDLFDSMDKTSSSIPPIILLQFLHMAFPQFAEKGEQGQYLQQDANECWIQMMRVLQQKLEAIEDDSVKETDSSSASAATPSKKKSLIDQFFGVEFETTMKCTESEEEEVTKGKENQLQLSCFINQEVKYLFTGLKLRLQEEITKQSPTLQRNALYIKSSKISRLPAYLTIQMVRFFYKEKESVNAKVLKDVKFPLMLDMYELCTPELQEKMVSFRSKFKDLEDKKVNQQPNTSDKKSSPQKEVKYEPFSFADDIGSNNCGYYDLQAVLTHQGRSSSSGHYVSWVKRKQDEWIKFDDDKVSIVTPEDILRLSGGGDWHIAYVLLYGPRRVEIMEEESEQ

70 unrelated proteases = assay: in vitro protease profiling
XPV + Polη cells = assay: UV sensitivity colony-forming assay; conditions: 20 μM ML323
human USP1-UAF1 = conditions: cited from earlier work
PD20 + D2 cells [15] = assay: cytotoxicity assay; conditions: PD20 + D2, cisplatin alone
H460 cell line = assay: colony-forming assay; conditions: read-out: EC50 of cell killing; cisplatin-sensitive NSCLC H460

T1 sequence (O94782 whole entry): as the sequence (O94782 whole entry) above
T1 sequence (Q8TAF3 whole entry partner): as the sequence (Q8TAF3 whole entry partner) above

## Cc1cnc(-c2ccccc2C(C)C)nc1NCc1ccc(-n2ccnn2)cc1 [ML323]
USP1-UAF1 [1]; Lineweaver-Burk, di-Ub cleavage
  inhibition mechanism: mixed inhibition mechanism
USP1-UAF1 [1]; mixed inhibition
  inhibition constant for the enzyme-substrate complex (K'i): 183 nM
USP1-UAF1 [2]
  reversibility of inhibition: reversible inhibitor
USP1-UAF1 [3]
  disruption of the USP1-UAF1 complex: ruled out the possibility that ML323 acts as a disruptor of the USP1-UAF1 complex
USP2
  inhibition of USP2: little to no inhibition
USP5
  inhibition of USP5: little to no inhibition
USP8
  inhibition of USP8: little to no inhibition
USP11
  inhibition of USP11: little to no inhibition
USP21
  inhibition of USP21: little to no inhibition
USP46-UAF1
  inhibition of USP46-UAF1: did not inhibit
SENP1
  inhibition of SENP1: did not inhibit
NEDP1
  inhibition of NEDP1: did not inhibit
451 kinases
  inhibition of kinases: no substantial inhibition
USP1-UAF1 [4]
  labeling of USP1-UAF1 by HA-Ub-VME: inhibited the labeling of USP1-UAF1 by HA-Ub-VME
USP1 in HEK293T cells
  labeling of cellular USP1 by HA-Ub-VME: clear decrease in the intensity of the labeled USP1 band
[5]
  labeling of other cellular DUBs by HA-Ub-VME: did not inhibit the labeling of the DUBs tested
H596 cells [6]
  change in levels of Ub-PCNA and Ub-FANCD2: increase in the monoubiquitination of PCNA and FANCD2 was also observed
H596 cells [6]; H596, ML323 alone or in combination with cisplatin
  time to effect on PCNA ubiquitination after treatment: 3 to 6 h
H596 cells [6]; H596, ML323 alone or with cisplatin
  level of Ub-H2A: did not affect the level of Ub-H2A
H596 cells [6]; H596, absence or presence of cisplatin, 6 h
  concentration at which increase in Ub-PCNA level is seen: ≥ 5 µM
[7]
  Ub-PCNA level, cisplatin vs combination of ML323 and cisplatin: little difference in Ub-PCNA levels
H596 cells [8]; Homo sapiens, NCI-H596, read-out: EC50 of cell killing
  EC50: > 10000 nM
[9]
  sensitization to cisplatin: no further sensitization to cisplatin
H596 cells [10]; H596, ML323 alone 20 μM
  cell cycle delay or arrest: did not result in cell cycle delay or arrest
XPV cells
  LD50 of UV sensitivity: 3.2 J m^−2
PD20 cells
  LD50 of UV sensitivity: 2.8 J m^−2
PD20 + D2 cells [11]
  LD50 of UV sensitivity: 3.4 J m^−2
U2OS cells [12]
  FANCD2 subnuclear foci formation: no substantial change
DR-U2OS cells
  I-SceI-induced HR frequency: 0.81%
U2OS cells [13]
  SCE events per chromosome: 0.13 SCE events per chromosome
[14]
  inhibition of DUBs of UCH, OTU and MJD families: little to no inhibition
USP10
  inhibition of USP10: little to no inhibition
USP14
  inhibition of USP14: little to no inhibition
70 unrelated proteases
  inhibition of other proteases: no substantial inhibition
XPV + Polη cells
  LD50 of UV sensitivity: 4.7 J m^−2
  decrease of UV LD50 vs UV treatment alone: 42%

## O=c1[nH]c2ccccc2n1C1CCN(CCCC(c2ccc(F)cc2)c2ccc(F)cc2)CC1 [pimozide]
Human USP1-UAF1
  affinity as inhibitor of human USP1-UAF1: low micromolar

## CC(C)(Sc1ccc(CCN(CCCCC2CCCCC2)C(=O)NC2CCCCC2)cc1)C(=O)O [GW7647]
Human USP1-UAF1
  affinity as inhibitor of human USP1-UAF1: low micromolar

## N.N.[Cl][Pt][Cl] [cisplatin, reference compound]
H596 cells [6]
  change in levels of Ub-PCNA and Ub-FANCD2: small increase
H596 cells [8]; read-out: EC50 of cell killing, H596, single agent
  EC50: 486 nM
H596 cells [10]; H596, cisplatin 5 μM, ML323 20 μM
  population of cells in S phase: 45%
U2OS cells [12]
  FANCD2 subnuclear foci formation: 59.4%
U2OS cells [13]
  SCE events per chromosome: 0.99 SCE events per chromosome
PD20 + D2 cells [15]
  EC50: 12300 nM
H460 cell line
  EC50: 74 nM

— paper PMC4144829 (Nature chemical biology, 2014)
